# Entries after “also recorded” stand apart in the source; their conditions may differ.
# Columns and labels:
# [1] = system: FDP induced cell proliferation in the chick CAM; test: CAM cell proliferation assay in the presence of FDP; assay type: in vivo
# Procedure: (§1) Cell proliferation was measured using the chick chorioallantoic membrane (CAM) model as described previously (4, 29, 30).
# (§2) Briefly, on day zero, fertile hens' eggs, are placed in an egg incubator 37.5° C. with pointed ends facing downwards. On day 3, using a 2 ml syringe with a 21G needle, 2 ml of albumen is removed and the eggs returned to the incubator. On day 4, each egg is punctured by a needle at the blunt end into the air space. A square of shell is then removed, causing the egg contents to drop into the space left by collapse of the air space at the end of the egg and the withdrawal of albumen. The volume of the space above the dropped CAM is approximately 7 ml. The square opening in the shell is covered with Sellotape (RTM). The eggs then have to be kept level in the incubator without tilting. On day 10, the surviving eggs are organised into groups of preferably no less than 10. Test and control samples are prepared and each egg receives 0.3 ml of sample injected through the Sellotape (RTM) onto the upper surface of the CAM.
# The technique of removal of each CAM is simple but crucial to the rationale of achieving results expressed as total DPM per CAM. By 20 min, methyl-[^3H]thymidine is incorporated only into the CAM which has been directly exposed. Beyond 30 min, [^3H]thymidine becomes detectable in adjacent CAM that is applied to the shell, via uptake from the bloodstream. Each CAM is removed by holding the egg in the palm of one hand, Sellotape window face down, and piercing the side with pointed scissors well above the level of the dropped CAM. Scissors are used to cut round the shell, and the residual yolk and embryo tipped out into a disposal container once the umbilical vessels connecting the embryo to the CAM are cut. […]
# (§3) The assay used is based on quantitative measurement of DNA synthesis in the CAM after exposure to control and test substances 18 h after application in liquid form to the whole “dropped” area of each CAM (4,29). […]
# [2] = system: chick chorioallantoic membrane (CAM); test: CAM cell proliferation assay (DNA synthesis, methyl-[3H]thymidine), substance alone; assay type: in vivo
# Procedure: as §1, §2
# The technique of removal of each CAM is simple but crucial to the rationale of achieving results expressed as total DPM per CAM. […]
# as §3
# HUVEC and fibroblasts = test: BrdU ELISA cell proliferation cytotoxicity assay; assay type: cell-based, human; conditions: HUVEC and fibroblast monocultures; 24 hours
# Procedure: In order to determine whether the fibrin E analogue peptides WTM33, WTM34, WTM35, WTM36, and WTM37 are cytotoxic when applied to the HUVEC and fibroblasts used in the Angiosys™ angiogenesis assay, these reagents were examined in two different cytotoxicity assays. To simplify performance of these assays and discriminate between fibroblasts and HUVEC, cells were grown in monocultures rather than together and then treated with the experimental reagents as described below.
# Cytotoxicity of the fibrin E peptide analogues was also determined by examining cell proliferation, using a commercial BrdU ELISA (Roche Molecular Biochemicals) performed according to the manufacturer's instructions. This assay quantifies DNA synthesis as a measure of cellular proliferation, as stimulation or inhibition of cell replication will require a concomitant change in the rate of DNA synthesis. Measurement of DNA synthesis is achieved by incubating proliferating cells in medium in which thymidine has been replaced with the pyrimidine analogue 5-bromo-2′-deoxyuridine (BrdU). Once incorporated into the cellular DNA, BrdU is measured by immunoassay. Briefly, HUVEC and fibroblasts were seeded as monocultures into 96 well plates at a density of 5×10^3 cells per well, to a final volume of 100 μl per well in endothelial cell culture medium. At the end of an initial culture period of 72 hours under standard conditions, while the cells were still proliferating, fibrin E analogue peptides were added to a range of final concentrations, as shown in the FIG. 8. Each treatment concentration of each peptide was administered to four replicate wells. Control cells received standard medium without test compounds. The cells were incubated for 24 hours with the test compounds, before 10 μl of stock BrdU solution (100 μM) was added to give a final concentration of 10 μM BrdU, and the cells were incubated for a further 2 hours. The test medium was then removed from the cells and replaced with 200 μl per well of Fixing/Denaturing solution, which was incubated on the cells for a further 30 minutes at room temperature. This was then replaced with 100 μl per well anti-BrdU-POD (mouse monoclonal clone BMG 6H8, Fab fragments conjugated to peroxidase) prepared as directed, which was left on the cells for a further 90 minutes at room temperature. The antibody conjugate was then removed from the wells by rinsing three times in 200 μl per well of washing buffer (PBS) before 100 μl well substrate solution (tetramethyl-benzidine) was added and incubated at room temperature until colour development was sufficient for photometric detection (approximately 15 minutes). Absorbance at 370 nm was measured on a multi-well plate ELISA plate reader (Dynatech), with a reference wavelength of 492 nm. Mean absorbance values from each group of four wells were calculated and expressed as a percentage±standard deviation of the mean value obtained from control wells incubated in the absence of fibrin E analogue peptide.
sequence,measurement,setting,value
LHADPDLGVLCPTGC [WTM34],effect on FDP-induced stimulation of cell proliferation,"[1]; low / lower concentrations of peptide, 5 μM FDPs",significant inhibition of the FDP induced stimulation
same,effect on FDP-induced stimulation of cell proliferation,"[1]; peptide at 4.633 μM and 9.265 μM, 5 μM FDPs",does not appear to affect the FDP-induced stimulation of cell proliferation
same,effect on FDP-induced stimulation of cell proliferation,[1]; peptide in the presence of FDPs (5 μM) / fibrin,some inhibitory effect
same,maximum inhibition in the CAM assay,"[2]; peptide alone, highest dose tested (20 micromoles)",60%
same,effect on cell proliferation relative to control,"[2]; substance alone, across the range of concentrations tested",inherent inhibitory effect on cell stimulation; also recorded: inhibits cell proliferation and vessel formation in the CAM; also recorded: inhibitory effects
same,"cytotoxicity / cell proliferation, BrdU assay",HUVEC and fibroblasts,not cytotoxic; also recorded: no toxicity

# Source: patent US20040132969A1, “Antibodies, peptides, analogs and uses thereof” (priority 2000, published 2004)
